One assay deals with human whole blood. Nature of the assay: DNA fragmentation (apoptosis) in whole blood by agarose gel electrophoresis. It is filed as cell-based. As to conditions: 1 day of incubation, 100 μM VP-16, 20 μM BLM (FIG. 5 inset).
Assay [1] concerns p21 mRNA, U937 cells mixed with blood. Nature of the assay: etoposide-induced p21 mRNA expression from U937 cells mixed in healthy adult blood. The conditions noted are these: 10 μM etoposide-treated U937, 1,250 U937 cells added to 1 μL blood, vs DMSO-treated U937 (FIG. 2). It is filed as cell-based, human. The procedure:
The mRNA and cDNA were prepared from whole blood. In brief, home-made 96-well filterplates were placed over collection plates, and 150 μl 5 mM Tris, pH 7.4, was applied. Following centrifugation at 120×g for 1 min at 4° C., 50 μl of blood samples were applied to each well and immediately centrifuged at 120×g for 2 min at 4° C., followed by washing of each well with 300 μl PBS once with centrifugation at 2000×g for 5 min at 4° C. Then, 60 μl stock lysis buffer, containing for example 0.5% N-Lauroylsarcosine, 4×SSC, 10 mM Tris HCl, pH 7.4, 1 mM EDTA, 0.1% IGEPAL CA-630, and 1.791 M guanidine thiocyanate, supplemented with 1% 2-mercaptoethanol (Bio Rad, Hercules, Calif., USA), 0.5 mg/ml proteinase K (Pierce, Rockford, Ill., USA), 0.1 mg/ml salmon sperm DNA (5 Prime Eppendorf/Brinkmann, Westbury, N.Y., USA), 0.1 mg/ml E. coli tRNA (Sigma), a cocktail of 10 mM each of the specific reverse primers shown in Table 1, and standard RNA34 oligonucleotides, were applied to the filterplates, followed by incubation at 37° C. for 10 min. The filterplates were then placed over oligo(dT)-immobilized microplates (GenePlate, RNAture), and centrifuged at 2000×g for 5 min at 4° C. […] The Ct was determined by analytical software (SDS, ABI). […]

In another assay the test system is PUMA mRNA. The experiment in a line: drug-induced PUMA mRNA expression in whole blood of leukemia and lymphoma patients. It is filed as cell-based, human. The conditions noted are these: 2 hours at 37° C.
The subject of another assay is BAX mRNA. The experiment in a line: drug-induced BAX mRNA expression in whole blood of leukemia and lymphoma patients. It is filed as cell-based, human. As to conditions: leukemic lymphoma patient 2, 2 hours at 37° C., drug concentrations (FIG. 3).

“Also recorded” adds a separate entry of the source.

Consider 2 compounds from patent publication US20090011410A1, “METHOD FOR TAILORING ADMINISTRATION OF DRUGS BY QUANTITATION OF MRNA” (priority 2004, published 2009).

Experimental for BAX mRNA: For human experiments, blood aliquots were stimulated with various anti-cancer drugs at 37° C. for 2 hours, then both p21 and BAX mRNA were measured. The anti-cancer drugs used in this study were clinical drugs, and the concentration of each drug was adjusted to typical blood levels 3-6 hours after intravenous administration.
The mRNA and cDNA were prepared from whole blood. In brief, home-made 96-well filterplates were placed over collection plates, and 150 μl 5 mM Tris, pH 7.4, was applied. Following centrifugation at 120×g for 1 min at 4° C., 50 μl of blood samples were applied to each well and immediately centrifuged at 120×g for 2 min at 4° C., followed by washing of each well with 300 μl PBS once with centrifugation at 2000×g for 5 min at 4° C. Then, 60 μl stock lysis buffer, containing for example 0.5% N-Lauroylsarcosine, 4×SSC, 10 mM Tris HCl, pH 7.4, 1 mM EDTA, 0.1% IGEPAL CA-630, and 1.791 M guanidine thiocyanate, supplemented with 1% 2-mercaptoethanol (Bio Rad, Hercules, Calif., USA), 0.5 mg/ml proteinase K (Pierce, Rockford, Ill., USA), 0.1 mg/ml salmon sperm DNA (5 Prime Eppendorf/Brinkmann, Westbury, N.Y., USA), 0.1 mg/ml E. coli tRNA (Sigma), a cocktail of 10 mM each of the specific reverse primers shown in Table 1, and standard RNA34 oligonucleotides, were applied to the filterplates, followed by incubation at 37° C. for 10 min. The filterplates were then placed over oligo(dT)-immobilized microplates (GenePlate, RNAture), and centrifuged at 2000×g for 5 min at 4° C. Following overnight storage at 4° C., the microplates were washed with 100 μl plain lysis buffer 3 times, followed by 150 μl of wash buffer (0.5 M NaCl, 10 mM Tris, pH 7.4, 1 mM EDTA) 3 times at 4° C. The cDNA was directly synthesized in each well by adding 30 μl buffer containing 1× RT-butter, 1.25 mM each of dNTP, 4 units rRNasin, and 80 units of MMLV reverse transcriptase (Promega) (without primers), and incubation at 37° C. for 2 hours. The specific primer-primed cDNA existed in solution, and oligo(dT)-primed cDNA stayed immobilized in the microplate. For TaqMan PCR (FIGS. 1, 3, 4), the resultant 4 μl cDNA solution was directly transferred to 384-well PCR plates, to which 5 μl of TaqMan universal master mix (ABI) and 1 μl oligonucleotide cocktail (15 μM each of forward and reverse primer, and 3-6 μM TaqMan probe) were applied, and PCR was conducted in PRISM 7900HT (ABI), with one cycle of 95° C. for 10 min followed by 45 cycles of 95° C. for 30 sec, 55° C. for 30 sec, and 60° C. for 1 min. […] The Ct was determined by analytical software (SDS, ABI).
Experimental for human whole blood: Using a commercial kit (Puregene, Gentra, Minneapolis, Minn.), genomic DNA was purified from 300 μl each of whole blood with or without treatments. DNA was then analyzed in 3.5% agarose (3:1 NuSieve:agarose, FMC, Rockland, Me.) gel electrophoresis, stained with 0.5 μg/ml ethidium bromide, and photographic images were recorded by AlphaImager (Alpha Innotech, San Leandro, Calif.).
To mimic physiological conditions, whole blood was used, without isolating mononuclear cells. […] After 1 day of incubation, genomic DNA was extracted, and DNA fragmentation was analyzed by agarose gel electrophoresis using ethidium bromide staining.
Genomic DNA was purified from 300 μl each of whole blood with or without treatments, using a commercial kit (Puregene, Gentra, Minneapolis, Minn.). DNA was then analyzed in 3.5% agarose (3:1 NuSieve:agarose, FMC, Rockland, Me.) gel electrophoresis, stained with 0.5 μg/ml ethidium bromide, and photographic images were recorded by Alpha-Iimager (Alpha Innotech, San Leandro, Calif.).

For bleomycin [BLM], the “fragmentation of DNA” value in the assay on human whole blood is “confirmed; also recorded: fragmentation of DNA was observed”.

Consider `COc1cc([C@@H]2c3cc4c(cc3[C@@H](O[C@@H]3O[C@@H]5CO[C@@H](C)O[C@H]5[C@H](O)[C@H]3O)[C@H]3COC(=O)[C@H]23)OCO4)cc(OC)c1O` [VP-16, etoposide], for which the “p21 mRNA expression” value in assay [1] is listed as “significant”. Moreover, the PUMA induction entry in the assay with PUMA mRNA (AML patient, drug concentrations of b94 (FIG. 8B)) is “huge induction”. In the assay on PUMA mRNA (NHL patient, drug concentrations (FIG. 8C)), the PUMA response entry is “strong PUMA response”. The “BAX mRNA induction” value with BAX mRNA is listed as “induced”.
